Patent US8992960B2, “Multifunctional silica-based compositions and gels, methods of making them, and methods of using them” (University of Florida Research Foundation, Inc., priority 2010, dated 2015)

Test: Reactivity of DMDS towards Cu(II) ions (odor over time)
Type: physicochemical
Settings: in CuSiNG; preliminary results, characteristic odor over time
Method: Unlike SiNG, the physico-chemical environment of DMDS in CuSiNG is expected to be somewhat different due to presence of Cu (II) ions. […] However, the DMDS electron-rich sulfur atom has the ability to weakly interact with electron-deficient Cu(II) ion. This could further facilitate adsorption of DMDS into CuSiNG. Thorough FT-IR studies are performed to understand the nature of intermolecular interactions that exist between DMDS and SiNG. In addition, thermogravimetric analysis (TGA), calorimetry and QCM sensing studies to obtain DMDS loading/release characteristics (isotherms) against CuSiNG and SiNG materials will be used to determine the role of Cu II ions in DMDS loading. A comparative isotherm data analysis along with FT-IR analysis will reveal the effect of Cu in DMDS loading/release process.

Structure (SMILES): CSSC [DMDS, dimethyl disulfide]
- reactivity to Cu(II) ions: non-reactive to Cu(II) ions
